± gives the expanded uncertainty stated by the source.
How the values were obtained:
[1] = refractive index (Na D-line) (dimensionless); xn = mol fraction of the nth substance listed; conditions: 100 kPa, Liquid, Standard Abbe refractometry
[2] = xn = mol fraction of the nth substance listed; conditions: 100 kPa, Liquid; for viscosity: Capillary tube (Ostwald / Ubbelohde) method; for mass density: Vibrating tube method

C1CC[C@H]2CCCC[C@@H]2C1 [trans-decahydronaphthalene] + CCCCCCCCCCC
Conditions	mass density, [2] [kg/m3]	refractive index, [1]	viscosity, [2] [mPa·s]
293.15 K, x1 = 0.1041	751.02 ± 0.29	–	1.214 ± 0.014
293.15 K, x1 = 0.2052	761.89 ± 0.26	–	1.258 ± 0.014
293.15 K, x1 = 0.3027	772.86 ± 0.24	–	1.315 ± 0.014
293.15 K, x1 = 0.3999	784.34 ± 0.22	–	1.369 ± 0.014
293.15 K, x1 = 0.4997	796.76 ± 0.2	–	1.444 ± 0.014
293.15 K, x1 = 0.5991	809.74 ± 0.19	–	1.529 ± 0.014
293.15 K, x1 = 0.6991	823.47 ± 0.17	–	1.625 ± 0.014
293.15 K, x1 = 0.8019	838.4 ± 0.16	–	1.752 ± 0.014
293.15 K, x1 = 0.8992	853.35 ± 0.15	–	1.899 ± 0.015
293.15 K, x1 = 1	869.78 ± 0.13	–	2.112 ± 0.015
298.15 K, x1 = 0.1041	747.37 ± 0.29	1.4188 ± 0.0013	1.12 ± 0.014
298.15 K, x1 = 0.2052	758.22 ± 0.26	1.423 ± 0.0013	1.159 ± 0.013
298.15 K, x1 = 0.3027	769.19 ± 0.24	1.4272 ± 0.0013	1.212 ± 0.013
298.15 K, x1 = 0.3999	780.66 ± 0.22	1.4319 ± 0.0012	1.26 ± 0.013
298.15 K, x1 = 0.4997	793.09 ± 0.2	1.4367 ± 0.0012	1.326 ± 0.013
298.15 K, x1 = 0.5991	806.06 ± 0.19	1.4421 ± 0.0012	1.406 ± 0.014
298.15 K, x1 = 0.6991	819.79 ± 0.17	1.4476 ± 0.0012	1.492 ± 0.014
298.15 K, x1 = 0.8019	834.72 ± 0.16	1.4535 ± 0.0012	1.606 ± 0.014
298.15 K, x1 = 0.8992	849.65 ± 0.15	1.4594 ± 0.0012	1.741 ± 0.014
298.15 K, x1 = 1	866.07 ± 0.13	1.4662 ± 0.0012	1.925 ± 0.015
303.15 K, x1 = 0.1041	743.67 ± 0.29	–	1.037 ± 0.013
303.15 K, x1 = 0.2052	754.53 ± 0.26	–	1.073 ± 0.013
303.15 K, x1 = 0.3027	765.5 ± 0.24	–	1.121 ± 0.013
303.15 K, x1 = 0.3999	776.97 ± 0.22	–	1.165 ± 0.013
303.15 K, x1 = 0.4997	789.4 ± 0.2	–	1.222 ± 0.013
303.15 K, x1 = 0.5991	802.37 ± 0.19	–	1.296 ± 0.013
303.15 K, x1 = 0.6991	816.09 ± 0.17	–	1.376 ± 0.013
303.15 K, x1 = 0.8019	831.02 ± 0.16	–	1.478 ± 0.013
303.15 K, x1 = 0.8992	845.94 ± 0.15	–	1.597 ± 0.014
303.15 K, x1 = 1	862.34 ± 0.14	–	1.769 ± 0.014
308.15 K, x1 = 0.1041	739.97 ± 0.29	1.4143 ± 0.0013	0.965 ± 0.013
308.15 K, x1 = 0.2052	750.83 ± 0.26	1.419 ± 0.0013	0.996 ± 0.013
308.15 K, x1 = 0.3027	761.8 ± 0.24	1.4232 ± 0.0013	1.041 ± 0.013
308.15 K, x1 = 0.3999	773.28 ± 0.22	1.428 ± 0.0012	1.081 ± 0.013
308.15 K, x1 = 0.4997	785.7 ± 0.2	1.4331 ± 0.0012	1.136 ± 0.013
308.15 K, x1 = 0.5991	798.67 ± 0.19	1.4378 ± 0.0012	1.201 ± 0.013
308.15 K, x1 = 0.6991	812.39 ± 0.17	1.4434 ± 0.0012	1.274 ± 0.013
308.15 K, x1 = 0.8019	827.31 ± 0.16	1.4496 ± 0.0012	1.366 ± 0.013
308.15 K, x1 = 0.8992	842.22 ± 0.15	1.4559 ± 0.0012	1.473 ± 0.013
308.15 K, x1 = 1	858.61 ± 0.14	1.4618 ± 0.0012	1.628 ± 0.013
313.15 K, x1 = 0.1041	736.25 ± 0.29	–	0.9 ± 0.012
313.15 K, x1 = 0.2052	747.11 ± 0.26	–	0.929 ± 0.012
313.15 K, x1 = 0.3027	758.09 ± 0.24	–	0.972 ± 0.012
313.15 K, x1 = 0.3999	769.57 ± 0.22	–	1.006 ± 0.012
313.15 K, x1 = 0.4997	781.99 ± 0.21	–	1.058 ± 0.012
313.15 K, x1 = 0.5991	794.96 ± 0.19	–	1.117 ± 0.012
313.15 K, x1 = 0.6991	808.67 ± 0.17	–	1.182 ± 0.012
313.15 K, x1 = 0.8019	823.59 ± 0.16	–	1.267 ± 0.013
313.15 K, x1 = 0.8992	838.5 ± 0.15	–	1.364 ± 0.013
313.15 K, x1 = 1	854.88 ± 0.14	–	1.505 ± 0.013
318.15 K, x1 = 0.1041	732.53 ± 0.29	1.4099 ± 0.0013	0.842 ± 0.012
318.15 K, x1 = 0.2052	743.39 ± 0.26	1.4146 ± 0.0013	0.869 ± 0.012
318.15 K, x1 = 0.3027	754.37 ± 0.24	1.4191 ± 0.0013	0.908 ± 0.012
318.15 K, x1 = 0.3999	765.85 ± 0.22	1.4236 ± 0.0012	0.94 ± 0.012
318.15 K, x1 = 0.4997	778.27 ± 0.21	1.4281 ± 0.0012	0.988 ± 0.012
318.15 K, x1 = 0.5991	791.24 ± 0.19	1.4332 ± 0.0012	1.042 ± 0.012
318.15 K, x1 = 0.6991	804.95 ± 0.17	1.439 ± 0.0012	1.101 ± 0.012
318.15 K, x1 = 0.8019	819.87 ± 0.16	1.4452 ± 0.0012	1.18 ± 0.012
318.15 K, x1 = 0.8992	834.77 ± 0.15	1.4515 ± 0.0012	1.267 ± 0.012
318.15 K, x1 = 1	851.14 ± 0.14	1.4581 ± 0.0012	1.394 ± 0.013
323.15 K, x1 = 0.1041	728.79 ± 0.29	–	0.789 ± 0.012
323.15 K, x1 = 0.2052	739.66 ± 0.26	–	0.815 ± 0.012
323.15 K, x1 = 0.3027	750.64 ± 0.24	–	0.852 ± 0.012
323.15 K, x1 = 0.3999	762.12 ± 0.22	–	0.881 ± 0.012
323.15 K, x1 = 0.4997	774.54 ± 0.21	–	0.924 ± 0.012
323.15 K, x1 = 0.5991	787.51 ± 0.19	–	0.975 ± 0.012
323.15 K, x1 = 0.6991	801.22 ± 0.18	–	1.028 ± 0.012
323.15 K, x1 = 0.8019	816.14 ± 0.16	–	1.1 ± 0.012
323.15 K, x1 = 0.8992	831.03 ± 0.15	–	1.18 ± 0.012
323.15 K, x1 = 1	847.4 ± 0.14	–	1.295 ± 0.012
